According to patent publication US20220127232A1, “HISTONE ACETYLTRANSFERASE MODULATORS AND COMPOSITIONS AND USES THEREOF” (The Trustees of Columbia University in the City of New York, priority 2019, published 2022):
pEC50: −log10 of the molar value. Read-outs that look alike come from different tables or passages of the source.

How the values were obtained:
p300 = p300 (Homo sapiens, UniProt Q09472); test: Histone Acetyltransferase (HAT) in vitro acetylation assay, western blot of H3K27ac / H3K18ac; format: biochemical; conditions: compound in DMSO
p300, sequence (Q09472 whole entry, species assumed): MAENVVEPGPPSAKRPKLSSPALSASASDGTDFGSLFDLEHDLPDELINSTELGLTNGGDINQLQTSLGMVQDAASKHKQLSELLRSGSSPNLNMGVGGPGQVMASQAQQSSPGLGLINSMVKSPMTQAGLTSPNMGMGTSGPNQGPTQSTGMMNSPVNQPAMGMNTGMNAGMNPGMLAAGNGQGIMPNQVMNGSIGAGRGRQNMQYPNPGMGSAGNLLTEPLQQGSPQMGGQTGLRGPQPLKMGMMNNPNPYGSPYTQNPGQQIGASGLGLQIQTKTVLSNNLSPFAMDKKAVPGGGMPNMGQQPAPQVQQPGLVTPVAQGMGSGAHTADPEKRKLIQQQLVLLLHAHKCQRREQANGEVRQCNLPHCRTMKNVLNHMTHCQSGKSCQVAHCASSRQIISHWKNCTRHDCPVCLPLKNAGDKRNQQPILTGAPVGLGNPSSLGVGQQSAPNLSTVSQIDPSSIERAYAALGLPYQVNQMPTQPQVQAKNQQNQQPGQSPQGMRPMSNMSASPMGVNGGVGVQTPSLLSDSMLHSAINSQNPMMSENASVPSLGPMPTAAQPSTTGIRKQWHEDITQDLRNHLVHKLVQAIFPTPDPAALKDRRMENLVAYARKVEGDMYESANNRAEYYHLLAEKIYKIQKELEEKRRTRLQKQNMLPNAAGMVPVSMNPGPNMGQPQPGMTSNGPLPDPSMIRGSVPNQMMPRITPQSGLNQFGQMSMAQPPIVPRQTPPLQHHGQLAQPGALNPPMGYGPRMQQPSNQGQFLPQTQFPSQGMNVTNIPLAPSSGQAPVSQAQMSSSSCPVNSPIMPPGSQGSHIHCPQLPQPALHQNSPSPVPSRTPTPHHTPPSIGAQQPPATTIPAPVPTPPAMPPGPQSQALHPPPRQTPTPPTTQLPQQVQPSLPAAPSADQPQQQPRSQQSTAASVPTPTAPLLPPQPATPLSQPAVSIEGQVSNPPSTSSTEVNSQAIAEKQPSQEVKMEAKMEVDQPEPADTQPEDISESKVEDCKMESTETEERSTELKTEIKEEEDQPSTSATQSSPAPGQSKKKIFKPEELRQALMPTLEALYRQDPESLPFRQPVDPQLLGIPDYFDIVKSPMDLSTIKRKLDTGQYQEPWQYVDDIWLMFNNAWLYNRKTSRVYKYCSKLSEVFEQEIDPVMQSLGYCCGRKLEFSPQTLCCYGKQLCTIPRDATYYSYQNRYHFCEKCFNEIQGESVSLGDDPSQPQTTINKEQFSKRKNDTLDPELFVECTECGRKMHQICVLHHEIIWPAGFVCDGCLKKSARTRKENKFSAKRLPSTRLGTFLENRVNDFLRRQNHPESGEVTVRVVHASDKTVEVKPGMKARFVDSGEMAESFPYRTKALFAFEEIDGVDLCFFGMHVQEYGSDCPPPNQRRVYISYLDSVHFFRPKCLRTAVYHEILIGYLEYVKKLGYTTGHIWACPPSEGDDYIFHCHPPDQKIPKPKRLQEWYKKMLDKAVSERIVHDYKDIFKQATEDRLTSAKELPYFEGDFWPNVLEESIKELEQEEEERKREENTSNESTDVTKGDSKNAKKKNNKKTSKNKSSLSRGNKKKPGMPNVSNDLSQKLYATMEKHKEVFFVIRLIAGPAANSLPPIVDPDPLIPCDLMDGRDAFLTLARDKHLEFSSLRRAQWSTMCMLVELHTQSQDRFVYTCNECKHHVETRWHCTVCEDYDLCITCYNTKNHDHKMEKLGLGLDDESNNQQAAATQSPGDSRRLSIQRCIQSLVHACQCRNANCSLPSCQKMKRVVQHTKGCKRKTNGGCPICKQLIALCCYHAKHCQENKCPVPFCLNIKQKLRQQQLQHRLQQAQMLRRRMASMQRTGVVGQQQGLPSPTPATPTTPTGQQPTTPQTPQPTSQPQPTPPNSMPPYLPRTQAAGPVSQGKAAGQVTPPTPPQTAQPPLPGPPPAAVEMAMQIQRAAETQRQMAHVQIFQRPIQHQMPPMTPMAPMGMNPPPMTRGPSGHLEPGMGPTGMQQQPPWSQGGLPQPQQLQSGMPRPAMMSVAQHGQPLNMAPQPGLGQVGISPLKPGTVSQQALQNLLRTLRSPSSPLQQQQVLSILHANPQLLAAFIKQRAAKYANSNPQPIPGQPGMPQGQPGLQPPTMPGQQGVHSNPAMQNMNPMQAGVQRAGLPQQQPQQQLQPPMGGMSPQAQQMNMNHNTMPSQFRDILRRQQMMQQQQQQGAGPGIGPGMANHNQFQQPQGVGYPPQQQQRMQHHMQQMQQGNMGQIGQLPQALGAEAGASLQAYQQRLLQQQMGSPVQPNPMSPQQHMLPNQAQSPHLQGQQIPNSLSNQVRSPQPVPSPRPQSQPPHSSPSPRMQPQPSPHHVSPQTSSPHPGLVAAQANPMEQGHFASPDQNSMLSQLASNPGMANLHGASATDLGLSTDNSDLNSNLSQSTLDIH
Procedure: The aim of the in vitro acetylation assay is to measure the enzymatic activity of the various compounds towards p300.
First, the drug is prepared:
Second, dilute p300 in AM1 buffer to a concentration of 40 ng/μL (final concentration in the reaction 20 ng/μL). This is accomplished by diluting 1 μL of p300 (at 0.4 μg/μL) into […] of AM1 buffer.
Third, prepare the Master Mix. Prepare the Master Mix in low protein binding tubes (ThermoFisher Cat. No. 90410), 20 μL system.
Incubate reactions at 30° C. for 30 minutes.
Incubate reactions at 30° C. for 1 hour.
Fourth, perform the western blot assay. • Add 6.7 μL of Laemmli Sample Buffer 4× (Bio-Rad Laboratories Cat. No. 161-0737) for each reaction and boil samples at 95° C. for 5 min. • Charge 10 μL for each sample in 2 Tris Glycine 4-15% gels (Bio-Rad Laboratories Cat. No. 456-1086). Running Buffer: Tris-Glycine 1× (pour in the cell up to the writing “2 gels”). • Run at 90 V for 1 hour (until the gel front reaches the green line of cell). • Semi-dry transfer with Trans-Blot® Turbo™ Blotting System from Bio-Rad Laboratories (Trans-Blot® Turbo™ RTA midi PVDF transfer kit Cat. No1704275). • Activate PVDF membrane in methanol for 5 minutes and then wet in Trans-Blot® Turbo™ transfer buffer. • Wet stacks in transfer buffer. • Transfer at 23 V 1.3 A for 7 minutes. • Blocking buffer: 5% Non-Fat milk in TBST (tween 0.1%) 1 hour at room temperature. • Cut the membranes to get Ac-His 3 at 17 kDa and p300 at 300 kDa. • Incubate with primary antibodies overnight at 4° C. • The day after, make 3 washes in TBST (Tween 0.1%) of 10 minutes. • Incubate with secondary antibody at room temperature for 1 hour. • Make 3 washes in TBST (Tween 0.1%) of 5 minutes. • Incubate membranes with ECL (SuperSignal West Dura Extended Duration Substrate from ThermoFisher) for 5 minutes at room temperature. • Acquire the image with ChemiDoc Odyssey Fc 2 minutes.
To detect total H3 (loading control), strip the membranes with Restore™ Western Blot Stripping Buffer according to the manufacturer protocol.
Various compounds were tested for enzymatic activity with respect to Lys 18 and Lys 27. EC50 is indicated for Activators and IC50 for inhibitors respectively.
FIGS. 1A to 25B are graphs showing the lysine residue acetylation as a function of concentration for the compounds set forth in Table 3. The shaded area corresponds to the average values of lysine residue acetylation (continuous line) and their standard error range measured in the absence of compound and DMSO. The number of replicates is represented by “n”.

mice = test: Contextual fear memory; format: in vivo
Procedure: FIG. 28 is a graph showing that RA010115 rescues oTau- and oAβ-induced defects in contextual fear memory. There is statistical significance when comparing all groups during testing for contextual fear memory at 24 hrs after the electric shock (ANOVA among all groups: F(5, 57)=5.558 p=0.0003). […] The performance was not impaired when mice were treated with only RA010115 or vehicle.

[1] = Stability in human liver microsomes; format: in vitro ADME; conditions: for microsomal CLint at 1 μM / half-life at 1 μM: both sexes, human, liver microsomes, pH 7.4, human liver microsomes
Procedure: Some compounds were tested for stability in human liver microsomes as shown below in Table 2.
Mixed-gender human liver microsomes (Lot #1010420) were purchased from XenoTech. The reaction mixture, minus NADPH, was prepared as described below. The test article was added into the reaction mixture at a final concentration of 1 μM. The control compound, testosterone, was run simultaneously with the test article in a separate reaction. An aliquot of the reaction mixture (without cofactor) was equilibrated in a shaking water bath at 37° C. for 3 minutes. The reaction was initiated by the addition of the cofactor, and the mixture was incubated in a shaking water bath at 37° C. Aliquots (100 μL) were withdrawn at 0, 10, 20, 30, and 60 minutes. Test article and testosterone samples were immediately combined with 400 μL of ice-cold 50/50 acetonitrile (ACN)/H2O containing 0.1% formic acid and internal standard to terminate the reaction. The samples were then mixed and centrifuged to precipitate proteins. All samples were assayed by LC-MS/MS using electrospray ionization. Analytical conditions are outlined in Appendix 1. The peak area response ratio (PARR) to internal standard was compared to the PARR at time 0 to determine the percent remaining at each time point. Half-lives and clearance were calculated using GraphPad software, fitting to a single-phase exponential decay equation.
Liver Microsomes 0.5 mg/mL NADPH (cofactor) 1 mM
Potassium Phosphate, pH 7.4 100 mM
Intrinsic clearance (CLint) was calculated based on CLint=k/P, where k is the elimination constant and P is the protein concentration in the incubation.

COc1cccc(OC)c1C(=O)Nc1ccc(Cl)c(C(F)(F)F)c1 [RA010115]
H3-Lys 27 EC50 (p300; EC50 for activators): NO ACTIVITY | pEC50 (p300; EC50 for activators, read-out: H3-Lys 18 EC50): 6.86 | H3-Lys 27 IC50 (p300; IC50 for inhibitors): NO ACTIVITY | oTau- and oAβ-induced defects in contextual fear memory (freezing) (mice; 24 hrs after the electric shock): rescues | Contextual fear memory performance, compound alone (mice; mice treated with only compound): not impaired | microsomal CLint at 1 μM ([1]; calculated value printed in parentheses behind the bound, read-out: CLint, value in parentheses): 150 µL/min/mg | half-life at 1 μM ([1]; fitted value printed in parentheses behind the bound, read-out: Half-life, value in parentheses): 9.25 min | microsomal CLint at 1 μM ([1]; read-out: CLint): > 139 µL/min/mg | half-life at 1 μM ([1]; read-out: Half-life): < 10 min | % Remaining of Initial (n = 1) 0 min ([1]; human liver microsomes, test article 1 μM, 0 min): 100% | % Remaining of Initial (n = 1) 10 min ([1]; human liver microsomes, test article 1 μM, 10 min): 47.7% | % Remaining of Initial (n = 1) 20 min ([1]; human liver microsomes, test article 1 μM, 20 min): 21.1% | % Remaining of Initial (n = 1) 30 min ([1]; human liver microsomes, test article 1 μM, 30 min): 11.4% | % Remaining of Initial (n = 1) 60 min ([1]; human liver microsomes, test article 1 μM, 60 min): 2.59%
